{"source": "patent US7615672B2", "about": "“Process for the preparation of n-heneicosane” (Defence Research & Development Organisation, priority 2005, dated 2009)", "origin": "cited, not measured here", "system": "Aedes aegypti", "details": "oviposition attractant pheromone", "data": [{"smiles": "CCCCCCCCCCCCCCCCCCCCC", "note": "[n-heneicosane]", "values": [{"measurement": "concentration at which n-heneicosane attracts Aedes aegypti mosquitoes", "result": "less than 100 ppm"}]}]}
